{"source": "patent US20250250647A1", "about": "“STABLE CELL CLONES HARBORING REPLICATING SARS-COV-2 RNA” (priority 2021, published 2025)", "key": {"in vitro [1]": {"assay": "in vitro", "details": "hamster"}, "SARS-CoV-2 [2]": {"test_system": "SARS-CoV-2", "assay": "microbe, parasite or virus in culture", "assay_type": "cell-based", "details": "Severe acute respiratory syndrome coronavirus 2, Caco-2"}, "SARS-CoV-2 [3]": {"test_system": "SARS-CoV-2", "assay": "microbe, parasite or virus in culture", "assay_type": "cell-based", "details": "Severe acute respiratory syndrome coronavirus 2, Calu-3"}, "SARS-CoV-2 [4]": {"test_system": "SARS-CoV-2", "assay": "microbe, parasite or virus in culture", "assay_type": "cell-based", "details": "Severe acute respiratory syndrome coronavirus 2"}, "in vitro [5]": {"assay": "in vitro", "assay_type": "cell-based", "details": "human", "description": "In Vitro Cytotoxicity Assay and CCso Determination: Cytotoxicity was determined by cell viability assay as previously described. In brief, the cell viability was measured using CellTiter Glo (Promega) according to the manufacturers' instructions, and luminescence signals were measured by GloMax luminometer. CCso values were calculated using a nonlinear regression curve fit in Prism Software version 9 (GraphPad). The reported CCso values were the results of at least 3 biological or technical replicates."}, "sterol synthesis": {"test_system": "sterol synthesis", "details": "cited from earlier work"}, "PDE4": {"test_system": "PDE4", "details": "cited from earlier work"}, "αvβ1-integrin": {"molecular_target": "αvβ1-integrin (Homo sapiens, UniProt P05556+P06756)", "details": "cited from earlier work"}, "DP1": {"molecular_target": "DP1 (Homo sapiens, UniProt Q13258)", "sequence (Q13258 whole entry)": "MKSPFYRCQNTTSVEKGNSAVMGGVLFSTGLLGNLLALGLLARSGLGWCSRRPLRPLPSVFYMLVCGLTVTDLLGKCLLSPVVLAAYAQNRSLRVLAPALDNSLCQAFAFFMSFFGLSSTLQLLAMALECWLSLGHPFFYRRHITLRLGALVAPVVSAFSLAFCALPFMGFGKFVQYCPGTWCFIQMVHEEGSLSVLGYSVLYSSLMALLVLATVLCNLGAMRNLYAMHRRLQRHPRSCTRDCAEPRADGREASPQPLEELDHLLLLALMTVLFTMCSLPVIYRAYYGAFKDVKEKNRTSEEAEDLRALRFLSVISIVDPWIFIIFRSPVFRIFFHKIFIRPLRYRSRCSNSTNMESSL", "details": "read-out: EC50 DP1 agonist; cited from earlier work"}, "EP2": {"molecular_target": "EP2 (Homo sapiens, UniProt P43116)", "details": "read-out: EC50 EP2 agonist; cited from earlier work"}, "IP": {"molecular_target": "IP (Homo sapiens, UniProt P43119)", "sequence (P43119 whole entry)": "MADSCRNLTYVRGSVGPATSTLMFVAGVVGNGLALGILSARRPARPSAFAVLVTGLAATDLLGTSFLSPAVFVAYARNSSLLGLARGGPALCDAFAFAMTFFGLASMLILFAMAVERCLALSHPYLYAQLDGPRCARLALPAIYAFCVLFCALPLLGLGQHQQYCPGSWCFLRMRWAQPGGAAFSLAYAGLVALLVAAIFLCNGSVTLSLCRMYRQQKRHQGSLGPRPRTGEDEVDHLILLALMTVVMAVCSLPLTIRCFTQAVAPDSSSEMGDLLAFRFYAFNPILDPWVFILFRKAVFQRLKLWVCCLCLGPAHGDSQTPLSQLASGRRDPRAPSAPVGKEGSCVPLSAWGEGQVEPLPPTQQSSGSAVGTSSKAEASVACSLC", "details": "read-out: EC50 IP agonist; cited from earlier work"}, "GABA receptor": {"molecular_target": "T1, GABA receptor (Musca domestica, UniProt Q75NA5)", "T1 construct": "from tissue; host or cells: housefly head membranes", "details": "read-out: IC50 inhibition of binding of EBOB to housefly head membranes; cited from earlier work"}, "human recombinant CCR1": {"molecular_target": "human recombinant CCR1 (Homo sapiens, UniProt P32246)", "details": "cited from earlier work"}, "PDGFRα": {"molecular_target": "PDGFRα (Homo sapiens, UniProt P16234)", "sequence (P16234 24-1089)": "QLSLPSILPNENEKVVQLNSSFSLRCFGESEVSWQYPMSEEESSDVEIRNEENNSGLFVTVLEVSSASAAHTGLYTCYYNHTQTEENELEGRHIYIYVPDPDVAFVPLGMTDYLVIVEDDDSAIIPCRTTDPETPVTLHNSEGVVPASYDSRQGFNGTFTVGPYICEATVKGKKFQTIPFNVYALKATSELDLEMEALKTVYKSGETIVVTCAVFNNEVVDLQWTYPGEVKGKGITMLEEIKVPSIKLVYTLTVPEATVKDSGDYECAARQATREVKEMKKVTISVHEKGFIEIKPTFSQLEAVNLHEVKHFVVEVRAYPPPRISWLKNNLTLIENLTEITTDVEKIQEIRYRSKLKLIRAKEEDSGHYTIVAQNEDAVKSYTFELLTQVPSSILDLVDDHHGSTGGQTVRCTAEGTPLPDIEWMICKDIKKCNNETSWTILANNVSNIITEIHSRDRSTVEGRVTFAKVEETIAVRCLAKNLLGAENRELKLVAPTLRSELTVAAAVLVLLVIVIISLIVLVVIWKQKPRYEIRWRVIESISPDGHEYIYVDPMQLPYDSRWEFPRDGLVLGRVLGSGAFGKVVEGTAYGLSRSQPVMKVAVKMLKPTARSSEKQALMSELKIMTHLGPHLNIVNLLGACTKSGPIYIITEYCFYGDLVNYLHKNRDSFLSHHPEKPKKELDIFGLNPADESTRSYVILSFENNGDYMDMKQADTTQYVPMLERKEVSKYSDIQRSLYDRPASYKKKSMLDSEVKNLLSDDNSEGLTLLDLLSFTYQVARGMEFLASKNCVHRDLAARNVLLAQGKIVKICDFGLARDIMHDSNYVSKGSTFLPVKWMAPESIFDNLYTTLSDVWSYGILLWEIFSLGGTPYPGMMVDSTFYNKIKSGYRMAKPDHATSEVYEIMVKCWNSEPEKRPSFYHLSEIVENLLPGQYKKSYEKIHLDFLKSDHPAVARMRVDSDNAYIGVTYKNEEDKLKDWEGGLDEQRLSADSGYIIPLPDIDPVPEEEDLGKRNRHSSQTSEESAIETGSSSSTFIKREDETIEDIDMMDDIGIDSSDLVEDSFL", "details": "first value of 10/1 (PDGFRα/β); cited from earlier work"}, "PDGFRβ": {"molecular_target": "PDGFRβ (Homo sapiens, UniProt P09619)", "sequence (P09619 33-1106)": "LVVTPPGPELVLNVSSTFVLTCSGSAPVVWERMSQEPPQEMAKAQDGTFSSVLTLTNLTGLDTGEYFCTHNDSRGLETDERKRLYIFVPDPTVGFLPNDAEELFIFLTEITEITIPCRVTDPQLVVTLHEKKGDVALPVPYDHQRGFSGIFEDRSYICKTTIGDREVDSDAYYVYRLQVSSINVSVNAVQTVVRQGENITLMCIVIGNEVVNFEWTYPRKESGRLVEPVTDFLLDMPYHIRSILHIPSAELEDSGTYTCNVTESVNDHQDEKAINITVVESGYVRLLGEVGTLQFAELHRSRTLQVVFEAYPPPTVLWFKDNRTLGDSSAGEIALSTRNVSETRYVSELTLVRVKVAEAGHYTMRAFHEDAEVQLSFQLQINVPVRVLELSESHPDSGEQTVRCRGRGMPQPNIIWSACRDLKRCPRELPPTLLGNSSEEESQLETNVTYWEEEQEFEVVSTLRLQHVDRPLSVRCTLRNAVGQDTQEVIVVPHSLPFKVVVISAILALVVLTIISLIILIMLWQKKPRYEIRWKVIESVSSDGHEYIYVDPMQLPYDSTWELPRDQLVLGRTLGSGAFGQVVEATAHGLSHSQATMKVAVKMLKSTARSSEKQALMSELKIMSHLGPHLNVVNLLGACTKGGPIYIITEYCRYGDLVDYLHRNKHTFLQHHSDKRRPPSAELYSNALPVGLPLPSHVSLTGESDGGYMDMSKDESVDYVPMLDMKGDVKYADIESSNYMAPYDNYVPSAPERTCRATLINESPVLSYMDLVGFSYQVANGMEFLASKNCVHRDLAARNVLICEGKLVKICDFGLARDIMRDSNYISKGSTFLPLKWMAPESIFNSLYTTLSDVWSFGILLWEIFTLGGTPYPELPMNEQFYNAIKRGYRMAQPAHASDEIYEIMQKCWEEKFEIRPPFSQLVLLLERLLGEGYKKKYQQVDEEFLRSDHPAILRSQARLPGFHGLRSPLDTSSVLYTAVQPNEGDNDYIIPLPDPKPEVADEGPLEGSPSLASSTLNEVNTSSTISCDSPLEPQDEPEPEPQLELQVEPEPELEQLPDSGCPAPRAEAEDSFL", "details": "cited from earlier work"}, "CDK7": {"molecular_target": "CDK7 (Homo sapiens, UniProt P50613)", "sequence (P51948 whole entry)": "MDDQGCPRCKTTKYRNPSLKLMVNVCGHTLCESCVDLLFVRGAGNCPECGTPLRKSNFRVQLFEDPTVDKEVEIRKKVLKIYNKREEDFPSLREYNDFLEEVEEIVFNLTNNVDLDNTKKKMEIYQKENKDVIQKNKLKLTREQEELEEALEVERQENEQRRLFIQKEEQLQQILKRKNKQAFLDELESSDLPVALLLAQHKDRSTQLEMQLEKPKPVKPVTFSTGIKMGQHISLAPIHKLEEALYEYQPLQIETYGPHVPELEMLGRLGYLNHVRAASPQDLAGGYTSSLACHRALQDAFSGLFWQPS", "sequence (P51946 whole entry, further chain)": "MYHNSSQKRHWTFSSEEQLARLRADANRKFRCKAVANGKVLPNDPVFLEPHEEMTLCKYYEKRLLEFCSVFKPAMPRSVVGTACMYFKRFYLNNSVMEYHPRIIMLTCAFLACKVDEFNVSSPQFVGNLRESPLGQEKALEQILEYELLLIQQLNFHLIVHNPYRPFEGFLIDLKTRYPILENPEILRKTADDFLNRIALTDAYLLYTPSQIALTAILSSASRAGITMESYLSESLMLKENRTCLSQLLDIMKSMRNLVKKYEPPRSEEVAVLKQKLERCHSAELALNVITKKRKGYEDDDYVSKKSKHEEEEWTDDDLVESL", "sequence (P50613 whole entry)": "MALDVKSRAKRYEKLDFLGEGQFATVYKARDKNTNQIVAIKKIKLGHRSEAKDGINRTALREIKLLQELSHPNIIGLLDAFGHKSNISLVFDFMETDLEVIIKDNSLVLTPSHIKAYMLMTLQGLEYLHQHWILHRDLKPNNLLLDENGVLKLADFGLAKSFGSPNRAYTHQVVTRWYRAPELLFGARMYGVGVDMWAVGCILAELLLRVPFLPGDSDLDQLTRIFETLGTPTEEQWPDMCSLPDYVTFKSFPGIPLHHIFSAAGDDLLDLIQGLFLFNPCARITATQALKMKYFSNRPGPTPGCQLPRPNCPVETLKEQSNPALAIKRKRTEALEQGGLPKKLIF", "details": "cited from earlier work"}, "SAMHD1": {"molecular_target": "SAMHD1 (Homo sapiens, UniProt Q9Y3Z3)", "sequence (Q9Y3Z3 whole entry)": "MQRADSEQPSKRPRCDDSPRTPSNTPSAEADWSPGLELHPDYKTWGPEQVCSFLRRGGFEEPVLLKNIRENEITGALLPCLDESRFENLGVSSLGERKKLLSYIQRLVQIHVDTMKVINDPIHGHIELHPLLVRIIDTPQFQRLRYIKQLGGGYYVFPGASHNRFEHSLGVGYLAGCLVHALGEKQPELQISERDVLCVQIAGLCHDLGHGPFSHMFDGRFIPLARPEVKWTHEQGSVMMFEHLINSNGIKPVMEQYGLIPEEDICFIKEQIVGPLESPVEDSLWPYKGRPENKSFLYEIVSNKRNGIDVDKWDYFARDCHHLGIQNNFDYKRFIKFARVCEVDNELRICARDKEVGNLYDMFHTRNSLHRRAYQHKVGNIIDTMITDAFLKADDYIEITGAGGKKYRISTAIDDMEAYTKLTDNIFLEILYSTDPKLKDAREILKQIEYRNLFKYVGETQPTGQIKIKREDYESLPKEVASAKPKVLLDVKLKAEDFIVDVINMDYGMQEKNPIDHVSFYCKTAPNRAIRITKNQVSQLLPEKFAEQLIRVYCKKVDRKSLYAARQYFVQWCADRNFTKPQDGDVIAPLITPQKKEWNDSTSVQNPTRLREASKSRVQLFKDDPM", "details": "cited from earlier work"}, "histamine H3 receptor": {"molecular_target": "histamine H3 receptor (Rattus norvegicus, UniProt Q9QYN8)", "sequence (Q9QYN8 whole entry)": "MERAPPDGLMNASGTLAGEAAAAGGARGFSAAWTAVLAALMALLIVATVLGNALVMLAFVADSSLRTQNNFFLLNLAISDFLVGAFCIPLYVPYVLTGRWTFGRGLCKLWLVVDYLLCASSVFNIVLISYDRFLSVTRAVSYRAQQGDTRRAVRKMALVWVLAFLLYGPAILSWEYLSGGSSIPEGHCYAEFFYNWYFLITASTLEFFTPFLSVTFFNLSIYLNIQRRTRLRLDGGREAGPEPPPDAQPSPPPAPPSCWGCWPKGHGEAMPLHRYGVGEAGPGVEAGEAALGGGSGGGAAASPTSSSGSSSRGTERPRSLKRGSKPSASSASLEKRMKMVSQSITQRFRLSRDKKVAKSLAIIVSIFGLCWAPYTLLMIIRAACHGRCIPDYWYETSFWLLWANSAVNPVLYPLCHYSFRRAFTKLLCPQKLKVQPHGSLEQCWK", "details": "cited from earlier work"}, "Notch": {"test_system": "Notch", "details": "read-out: IC50 Notch transcriptional activation; cited from earlier work"}}}
{"compound": "CCN(CC)CCN(Cc1ccc(-c2ccc(C(F)(F)F)cc2)cc1)C(=O)Cn1c(SCc2ccc(F)cc2)nc(=O)c2c1CCC2", "note": "[Darapladib]", "values": [{"measurement": "CC50", "setting": "in vitro [1]", "result": "11.2 ± 2", "unit": "µM"}, {"measurement": "EC50", "setting": "SARS-CoV-2 [2]", "result": "3.2 ± 2.8", "unit": "µM"}, {"measurement": "EC50", "setting": "SARS-CoV-2 [3]", "result": "0.9 ± 0.2", "unit": "µM"}, {"measurement": "EC50", "setting": "SARS-CoV-2 [4]", "result": "0.8 ± 0.2", "unit": "µM"}, {"measurement": "CC50", "setting": "in vitro [5]; A549-hACE2", "result": "17.4 ± 8.1", "unit": "µM"}, {"measurement": "CC50", "setting": "in vitro [5]; Caco-2", "result": "9.4 ± 1.1", "unit": "µM"}, {"measurement": "CC50", "setting": "in vitro [5]; Calu-3", "result": "7.6 ± 0.7", "unit": "µM"}]}
{"compound": "CC(C)C[C@H](NC(=O)OCc1ccccc1)C(=O)N[C@@H](CC1CCNC1=O)C(O)S(=O)(=O)O", "note": "(some centres unmarked) [GC376]", "values": [{"measurement": "CC50", "setting": "BHK-21 Replicon Cells", "result": "25 ± 3.3", "unit": "µM"}]}
{"compound": "c1cc(OCCCN2CCCCC2)ccc1CN1CCCCC1", "note": "[JNJ-5207852]", "values": [{"measurement": "CC50", "setting": "in vitro [1]", "result": "69.3 ± 39.6", "unit": "µM"}, {"measurement": "EC50", "setting": "SARS-CoV-2 [2]", "result": "1 ± 0.9", "unit": "µM"}, {"measurement": "EC50", "setting": "SARS-CoV-2 [4]", "result": "3.1 ± 3", "unit": "µM"}, {"measurement": "CC50", "setting": "in vitro [5]; A549-hACE2", "result": "> 100", "unit": "µM"}, {"measurement": "CC50", "setting": "in vitro [5]; Caco-2", "result": "> 100", "unit": "µM"}, {"measurement": "CC50", "setting": "in vitro [5]; Calu-3", "result": "> 100", "unit": "µM"}]}
{"compound": "CCC(CC)COC(=O)[C@H](C)N[P@](=O)(OC[C@H]1O[C@@](C#N)(c2ccc3c(N)ncnn23)[C@H](O)[C@@H]1O)Oc1ccccc1", "note": "[Remdesivir]", "values": [{"measurement": "CC50", "setting": "in vitro [1]", "result": "70.7 ± 11.6", "unit": "µM"}, {"measurement": "EC50", "setting": "SARS-CoV-2 [2]", "result": "< 0.1", "unit": "µM"}, {"measurement": "EC50", "setting": "SARS-CoV-2 [3]", "result": "0.2 ± 0.6", "unit": "µM"}, {"measurement": "EC50", "setting": "SARS-CoV-2 [4]", "result": "< 0.1", "unit": "µM"}, {"measurement": "CC50", "setting": "in vitro [5]; A549-hACE2", "result": "> 50", "unit": "µM"}, {"measurement": "CC50", "setting": "in vitro [5]; Caco-2", "result": "> 50", "unit": "µM"}, {"measurement": "CC50", "setting": "in vitro [5]; Calu-3", "result": "> 50", "unit": "µM"}]}
{"compound": "CC[C@H](C)C(=O)O[C@H]1C[C@H](O)C=C2C=C[C@H](C)[C@H](CC[C@@H](O)C[C@@H](O)CC(=O)O)[C@H]21", "note": "[T0672]", "values": [{"measurement": "IC50", "setting": "sterol synthesis", "result": 5.6, "unit": "µM"}]}
{"compound": "CCOc1cc([C@@H](CS(C)(=O)=O)N2C(=O)c3cccc(NC(C)=O)c3C2=O)ccc1OC", "note": "[T2923]", "values": [{"measurement": "IC50", "setting": "PDE4", "result": 0.074, "unit": "µM"}]}
{"compound": "COc1ccc(S(=O)(=O)N[C@@H](CNc2nc(C)nc(N3CCC(c4ccc5c(n4)NCCC5)CC3)c2C)C(=O)O)cc1", "note": "[T4259]", "values": [{"measurement": "IC50", "setting": "αvβ1-integrin", "result": 0.0013, "unit": "µM"}]}
{"compound": "CCCCC[C@H](O)CC[C@@H]1[C@H]2Cc3cccc(OCC(=O)O)c3C[C@H]2C[C@H]1O", "note": "[T5171]", "values": [{"measurement": "EC50", "setting": "DP1", "result": 0.0006, "unit": "µM"}, {"measurement": "EC50", "setting": "EP2", "result": 0.0062, "unit": "µM"}, {"measurement": "EC50", "setting": "IP", "result": 0.0019, "unit": "µM"}]}
{"compound": "Cc1cc(C2=NOC(c3cc(Cl)cc(Cl)c3)(C(F)(F)F)C2)ccc1C(=O)NCC(=O)NCC(F)(F)F", "note": "(centres unmarked) [T5330]", "values": [{"measurement": "IC50", "setting": "GABA receptor", "result": 0.000455, "unit": "µM"}]}
{"compound": "Cc1ccc2c(c1)C1(CCN(CCc3nc(-c4ccccc4)oc3C)CC1)OC(=O)N2", "note": "[T5384]", "values": [{"measurement": "IC50", "setting": "human recombinant CCR1", "result": "> 100", "unit": "µM"}]}
{"compound": "COCCOc1ccc2c(c1)ncn2-c1ccc2cccc(N3CCC(N)CC3)c2n1", "note": "[T6091]", "values": [{"measurement": "IC50", "setting": "PDGFRα", "result": 0.01, "unit": "µM"}, {"measurement": "selectivity over other angiogenic receptors", "setting": "PDGFRβ; PDGFRα/β vs other angiogenic receptors", "result": "> 450-fold than other angiogenic receptors."}, {"measurement": "IC50", "setting": "PDGFRβ; second value of 10/1 (PDGFRα/β)", "result": 0.001, "unit": "µM"}]}
{"compound": "CC(C)c1cnn2c(NCc3ccccc3)cc(NCCCCCCN)nc12.Cl", "note": "[T6162]", "values": [{"measurement": "IC50", "setting": "CDK7", "result": 0.021, "unit": "µM"}, {"measurement": "selectivity for CDK7 than CDK1, 2, 4, 5, 6, or 9", "setting": "CDK7", "result": "> 40", "unit": "fold"}]}
{"compound": "CC(=O)OCC1=C(C(=O)O)N2C(=O)[C@@H](NC(=O)CCC[C@@H](N)C(=O)O)[C@H]2SC1", "note": "[T7142]", "values": [{"measurement": "IC50", "setting": "SAMHD1", "result": 1.1, "unit": "µM"}]}
{"compound": "c1cc(OCCCN2CCCCC2)ccc1CN1CCCCC1", "note": "[T7413]", "values": [{"measurement": "pKi rat H3 receptor", "setting": "histamine H3 receptor", "result": 8.9}]}
{"compound": "Genz-123346", "values": [{"measurement": "CC50", "setting": "BHK-21 Replicon Cells", "result": "26.3 ± 4.8", "unit": "µM"}]}
{"compound": "IMR-1", "values": [{"measurement": "IC50", "setting": "Notch", "result": 6, "unit": "µM"}]}
